From US9079838B2, “Ortho-phenylphenol compounds” (Dow Global Technologies LLC, priority 2011, dated 2015)

Key:
[1] = solubility in organic solvents at −10° C.; format: physicochemical; details: for soluble at (concentration) in AROMATIC 200: AROMATIC 200, −10° C.; for soluble at (concentration) in DMAc / soluble at (concentration) in NMP / soluble at (concentration) in dipropylene glycol dimethyl ether / soluble at (concentration) in tetralin: −10° C.
[2] = Solubility of Ex. 13 Product: 10% w/w solution in AROMATIC 200 stored in −11° C. freezer; format: physicochemical; details: 10% w/w in AROMATIC 200, −11° C. freezer, 2 weeks
Experimental: Solubility of Ex. 13 Product: A solution (10% w/w) in AROMATIC 200 was prepared at room temperature. The clear solution was placed in a −11° C. freezer for 2 weeks.

c1ccc(-c2ccccc2OCc2ccccc2COc2ccccc2-c2ccccc2)cc1 [1,2-bis(([1,1′-biphenyl]-2-yloxy)-methyl)benzene]
soluble at (concentration) in AROMATIC 200 [1]: 10%
soluble at (concentration) in DMAc [1]: 10%
soluble at (concentration) in NMP [1]: 10%
soluble at (concentration) in dipropylene glycol dimethyl ether [1]: 10%
soluble at (concentration) in tetralin [1]: 10%

c1ccc(-c2ccccc2OCc2ccc(COc3ccccc3-c3ccccc3)cc2)cc1 [1,4-bis(([1,1′-biphenyl]-2-yloxy)-methyl)benzene]
soluble at (concentration) in NMP [1]: 10%
melting point: 140 to 142 °C

c1ccc(-c2ccccc2OCCCCOc2ccccc2-c2ccccc2)cc1 [1,4-bis([1,1′-biphenyl]-2-yloxy)butane]
soluble at (concentration) in DMAc [1]: 10%
soluble at (concentration) in NMP [1]: 10%
soluble at (concentration) in dipropylene glycol dimethyl ether [1]: 10%
melting point: 62 to 67 °C

CCCCCCCCCCCCOc1ccccc1-c1ccccc1 [2-(dodecyloxy)-1,1′-biphenyl]
soluble at (concentration) in AROMATIC 200 [1]: 10%
soluble at (concentration) in dipropylene glycol dimethyl ether [1]: 10%
soluble at (concentration) in tetralin [1]: 10%
melting point: 27 to 29 °C

CCCCCCCCCCCCCCCCCCOc1ccccc1-c1ccccc1 [2-(octadecyloxy)-1,1′-biphenyl]
soluble at (concentration) in tetralin [1]: < 5%
melting point: 42 to 45 °C

CCCCCCCCCCCCCCOc1ccccc1-c1ccccc1 [2-(tetradecyloxy)-1,1′-biphenyl]
soluble at (concentration) in tetralin [1]: 7.5%

c1ccc(-c2ccccc2OCc2ccc(-c3ccc(COc4ccccc4-c4ccccc4)cc3)cc2)cc1 [4,4′-bis(([1,1′-biphenyl]-2-yloxy)methyl)-1,1′-biphenyl]
soluble at (concentration) in NMP [1]: 10%
melting point: 149 to 151 °C

O=C(Oc1ccccc1-c1ccccc1)c1ccccc1 [Ex. 13 Product, [1,1′-biphenyl]-2-yl benzoate]
crystallization from solution on cold storage [2]: No visibly detectable crystallization occurred
